# Experimental data taken from patent US20260271949A1, “PHOTOSENSITIZER COMPOSITIONS, DEVICES, AND METHODS OF USE FOR SURFACE SANITIZATION OF PROCESSED FOOD PRODUCTS” (ONDINE INTERNATIONAL AG, priority 2023, published 2026).
# Experiments:
# [1] = test system: Salmonella enterica Serotype Choleraesuis (ATCC 10708); assay: Planktonic MBC (turbidity assay), MBEC Assay challenge plate outgrowth; assay type: cell-based; details: S. enterica, PS alone, Blue 470 nm (Erythrosin B: Green 527 nm)
# [2] = test system: S. enterica biofilms; assay: MBEC (turbidity assay), biofilm recovery plate; assay type: cell-based, Salmonella enterica; details: Blue 470 nm (Erythrosin B: Green 527 nm)
# Description: (§1) The saturated bacterial cultures were diluted 1:10,000 to an approximate density of 10^5 CFU/mL. Density was confirmed by an inoculum check. The inoculum was poured into a sterile reagent reservoir. Using a multi-channel pipette, 200 μL of the ~105 inoculum was added to each well from rows A to G of the MBEC™ device, as indicated in FIGS. 2A-2C (12 devices per organism were tested; 4 devices per study day), 200 μL of OSB was added to row H to act as sterility controls (SC). The pegged lid was then placed into the microtiter plate and sealed in a plastic bag.
# (§2) The pegs of the MBEC lid were rinsed for 120 seconds.
# (§3) Using additional sterile 96-well receiver plates, recovery plates were prepared (one per MBEC lid) containing 225 μL per well of the neutralizer/recovery broth, as described above. The MBEC lids were transferred to the recovery broth, and the plates (with the pegged lids) were transferred into a stainless-steel insert tray, which sat in the water of a bath sonicator. Sonication was performed on high for 30 minutes to dislodge surviving biofilm. The pegged lid was then removed and discarded.
# (§4) 125 μL of OSB was added to each well of the recovery plates to top back up to 225 µL per well. The contents of the wells were mixed by pipetting up and down.
# [3] = test system: MRSA biofilms; assay: MBEC (turbidity assay), biofilm recovery plate; assay type: cell-based, Staphylococcus aureus; details: Blue 470 nm (Erythrosin B: Green 527 nm)
# Description: as §1, §2, §3, §4
# [4] = test system: S. enterica biofilms; assay: Quantitative determination of MBEC (Log10 reduction assay); assay type: cell-based, Salmonella enterica; details: for concentration of optimal efficacy: S. enterica biofilm; for Quant. MBEC / log 10 reduction in biofilm CFUs: S. enterica; for Quant. MBEC: >3 log10 reduction or max kill, PS alone, Blue 470 nm (Erythrosin B: Green 527 nm)
# Description: (§5) One hundred microlitres was removed from each well of row A of the recovery plate into row A of an appropriately labelled 96-well dilution plate; 100 μL was removed from row B of this recovery plate into row A of another 96-well dilution plate. This was repeated for other utilized MBEC rows (total: up to 8 dilution plates per MBEC recovery plate). These plates were kept for the “Quantitative Determination of MBEC (Log10 Reduction Assay)” described below.
# (§6) 180 μL of sterile 0.9% saline was added to each well of rows B-H of the 96-well dilution plates prepared as described above. The sample in row A was then serially diluted in the saline in rows B-H and spot plated on OSA.
# (§7) The quantitative MBEC was defined as the minimum concentration of test article that yielded a particular log 10 reduction in biofilm CFUs. For MRSA, >4 log 10 reduction (which corresponds to >99.99% reduction); for S. enterica, >3 log 10 reduction (which corresponds to >99.9% reduction) or, where recovery from the VC controls was <3 log 10, “max kill”.
# (§8) Quantitative MBEC results were determined using log 10 reduction. Generally, the appropriate number of colonies were counted on the spot plates according to the plating method used. An appropriate number of colonies that was considered appropriate for counting was a 20 μL spot where the individual colonies were visibly distinct from each other within the plated spot (typically 5-50 colonies). The section in which this spot was located gave the order of magnitude for the cell enumeration: 100-107.
# [5] = test system: MRSA biofilms; assay: as above; assay type: cell-based, Staphylococcus aureus; details: for concentration of optimal efficacy: MRSA biofilm; for Quant. MBEC / log 10 reduction in biofilm CFUs: MRSA; for Quant. MBEC: >4 log10 reduction, PS alone, Blue 470 nm (Erythrosin B: Green 527 nm)
# Description: as §5, §6, §7, §8
# [6] = test system: Staphylococcus aureus (MRSA) 456 S. Yanke; assay: Planktonic MBC (turbidity assay), MBEC Assay challenge plate outgrowth; details: Blue 470 nm (Erythrosin B: Green 527 nm)
# [7] = Coloration of challenge plates under green irradiation; assay type: physicochemical; details: green irradiation 2, 5, 10 min vs dark, most evident for 0.01% and 0.001%
# Description: FIG. 5 provides representative photographs showing coloration of challenge plates for the Green-irradiated PS (Erythrosin B) under dark conditions and with green irradiation for 2 min, 5 min and 10 min. The highest tested concentration of Erythrosin B (i.e., 1% w/v) was beet red in color, with the 1:1,000 dilution (i.e., 0.001% w/v) yielding a light pink color and minimal coloration remaining by the 1:10,000 dilution (i.e., 0.0001% w/V) (FIG. 5; left).
# [8] = fluence 0 (Dark) J/cm^2, PS alone
# [9] = Blue-irradiated, tested individually (FIG. 7 Panels A-C)
# [10] = Blue-irradiated, tested individually (FIG. 8 Panels A-C)
# [11] = PS at 0.01%, 10 minutes of green irradiation (51.0 J/cm^2)
# [12] = PS at 0.1%, 5 minutes of green irradiation (25.5 J/cm^2)
# [13] = PS at 0.1%, 5 minutes of blue irradiation (51.0 J/cm^2)
SMILES,MBC ([1]; fluence 0 (Dark) J/cm^2) [% w/V],MBC ([1]; fluence 10.2 J/cm^2),MBC ([1]; fluence 25.5 J/cm^2) [% w/V],"MBEC [2, 8] [% w/V]","MBEC ([2]; fluence 10.2 J/cm^2, PS alone)","MBEC ([2]; fluence 25.5 J/cm^2, PS alone)","MBEC [3, 8] [% w/V]","MBEC ([3]; fluence 10.2 J/cm^2, PS alone) [% w/V]","MBEC ([3]; fluence 25.5 J/cm^2, PS alone) [% w/V]","concentration of optimal efficacy [4, 9] [% w/v]",Quant. MBEC ([4]; fluence 0 (Dark) J/cm^2) [% w/V],Quant. MBEC ([4]; fluence 10.2 J/cm^2) [% w/V],Quant. MBEC ([4]; fluence 25.5 J/cm^2) [% w/V],Quant. MBEC ([4]; fluence 51.0 J/cm^2) [% w/V],"concentration of optimal efficacy [5, 10] [% w/v]",Quant. MBEC ([5]; fluence 0 (Dark) J/cm^2) [% w/V],Quant. MBEC ([5]; fluence 10.2 J/cm^2) [% w/V],Quant. MBEC ([5]; fluence 25.5 J/cm^2) [% w/V],Quant. MBEC ([5]; fluence 51.0 J/cm^2) [% w/V],"MBC [6, 8] [% w/V]",other results
"O=S(=O)([O-])c1ccc(N=Nc2c(O)ccc3cc(S(=O)(=O)[O-])ccc23)cc1.[Na+].[Na+] [PS2, Sunset Yellow FCF]",>1,>1 % w/V,>1,>1,>1 % w/V,>1 % w/V,>1,>1,>1,0.001,>1,>1,>1,0.001,0.01,>1,>1,>1,0.01,>1,"MBC ([6]; fluence 10.2 J/cm^2, PS alone): >1 % w/V; MBC ([6]; fluence 25.5 J/cm^2, PS alone): >1 % w/V"
"COc1cc(/C=C/C(=O)CC(=O)/C=C/c2ccc(O)c(OC)c2)ccc1O [PS3, Curcumin]",>0.001,>0.001 % w/V,>0.001,>0.001,>0.001 % w/V,>0.001 % w/V,>0.001,>0.001,>0.001,0.0001,>0.001,>0.001,>0.001,0.0001,0.001,>0.001,>0.001,>0.001,0.001,>0.001,"MBC ([1]; fluence 51.0 J/cm^2): >0.001 % w/V; MBEC ([2]; fluence 51.0 J/cm^2, PS alone): >0.001 % w/V; MBEC ([3]; fluence 51.0 J/cm^2, PS alone): >0.001 % w/V; MBC ([6]; fluence 10.2 J/cm^2, PS alone): >0.001 % w/V; MBC ([6]; fluence 25.5 J/cm^2, PS alone): >0.001 % w/V"
"O=C1OC2(c3ccccc31)c1cc(I)c(O)c(I)c1Oc1c2cc(I)c(O)c1I [PS4, Erythrosin B]",>1,0.01 (Ø) % w/V,,>1,0.01 (Ø) % w/V,0.01 (Ø) % w/V,>1,,,,>1,>1,0.1,0.01,,>1,0.01,,,,"concentration of optimal efficacy ([4]; Green irradiation, 51.0 J/cm^2 (FIG. 9)): 0.01%; log 10 reduction in biofilm CFUs [4, 11]: max kill; log 10 reduction in biofilm CFUs [4, 12]: max kill; concentration of optimal efficacy ([5]; Green irradiation, 10.2 J/cm^2 (FIG. 9)): 0.01%; concentration of optimal efficacy ([5]; Green irradiation, 25.5 J/cm^2 (FIG. 9)): 0.1%; log 10 reduction in biofilm CFUs [5, 11]: max kill; log 10 reduction in biofilm CFUs [5, 12]: 5.28 log 10; coloration upon irradiation [7]: lost coloration with increasing irradiation time"
"Cc1cc2nc3c(=O)[nH]c(=O)nc-3n(C[C@H](O)[C@H](O)[C@H](O)COP(=O)([O-])O)c2cc1C.[Na+] [PS1, Riboflavin-5′-Phosphate Sodium USP]",>1,>1 % w/V,>1,>1,>1 % w/V,>1 % w/V,>1,>1,>1,0.1,>1,>1,>1,0.1,0.1,>1,>1,>1,0.1,>1,"MBEC ([3]; fluence 51.0 J/cm^2, PS alone): 0.1 (Ø) % w/V; log 10 reduction in biofilm CFUs [4, 13]: max kill; log 10 reduction in biofilm CFUs [5, 13]: 5.36 log 10; MBC ([6]; fluence 10.2 J/cm^2, PS alone): >1 % w/V; MBC ([6]; fluence 25.5 J/cm^2, PS alone): 0.1 (Ø) % w/V"
